Read-outs that look alike come from different tables or passages of the source.
Columns and labels:
dengue [1] = conditions: mouse model; cited from earlier work
dengue [2] = conditions: cited from earlier work
four serotypes of dengue = assay: Yield assays against each of the four serotypes of dengue; format: cell-based, Dengue virus; conditions: all four serotypes
Method: Initially, the chemical structures of the hit compounds were examined for chemical tractability. […] Hits that passed this medicinal chemistry filter were evaluated for their potency. Compound potency was determined by evaluating inhibitory activity across a broad range of concentrations. Nonlinear regression was used to generate best-fit inhibition curves and to calculate the 50% effective concentration (EC50). The selectivity or specificity of a given compound is typically expressed as a ratio of its cytotoxicity to its biological effect. A cell proliferation assay is used to calculate a 50% cytotoxicity concentration (CC50); the ratio of this value to the EC50 is referred to as the therapeutic index (T.I.=CC50/EC50). Two types of assays have been used to determine cytotoxicity, both of which are standard methods for quantitating the reductase activity produced in metabolically active cells (22). […] Verification that these compounds act against each of the four serotypes of dengue was done with yield assays carried out at several drug concentrations, and the titer determined for each.
Compounds that were active in the primary screen were tested for activity in viral yield assays. […] The EC50 was calculated through ExcelFit. Activities against other serotypes of dengue virus were determined in a similar way.

[3] = test system: Dengue-2 (Strain New Guinea C); assay: Viral yield assay against Dengue-2 in Vero cells; format: cell-based, Dengue virus; conditions: Dengue virus
How it was run: (§1)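 Progeny virus from compound-treated Vero monolayers infected at an MOI of 0.1 is collected after 48 h at 37° C and titered on Vero cells. DMSO serves as control.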

DENV-3 = assay: Viral yield assay against DENV-3 in Vero cells; format: cell-based; conditions: Dengue virus
How it was run: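 Vero cells were infected with dengue-2 at MOI 0.1, treated with compound (DMSO control), and kept at 37° C. They were harvested 48 hours post infection and yield was titered on Vero cells. EC50 came from the yield curve, and the other serotypes were run in a similar way.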

DENV-1 = assay: Viral yield assay against DENV-1 in Vero cells; format: cell-based; conditions: Dengue virus
How it was run: as §1

DENV-4 = assay: Viral yield assay against DENV-4 in Vero cells; format: cell-based; conditions: Dengue virus
How it was run: as §1

[4] = DENV2, Vero cells, read-out: Activity (EC50 in μM) DENV-2
[5] = DENV2, viral yield assay, Vero cells, MOI 0.1, 48 hours post infection, read-out: Activity (EC50 in μM) DENV-2

Question: With `NC(=O)c1ncn([C@@H]2O[C@H](CO)[C@@H](O)[C@H]2O)n1` [ribavirin, Ribavirin] as the molecule, how does the Protection against dengue (dengue [1]) read?
Answer: did not show protection

Question: And the Adverse effects induced (dengue [2]; animal model, literature)?
Answer: induced anemia and thrombocytosis

Question: And the Protection against dengue (dengue [2]; rhesus monkey model)?
Answer: did not show protection

Question: For `Nc1c(C(=O)Nc2nnc(-c3ccccc3)s2)sc2nc3c(cc12)CCCCC3` [Compound 1, 3-Amino-6,7,8,9-tetrahydro-5H-1-thia-10-aza-cyclohepta[f]indene-2-carboxylic acid (5-phenyl-[1,3,4]thiadiazol-2-yl)-amide], which “Activity against serotypes of dengue” value (four serotypes of dengue) is on record?
Answer: activity against all four serotypes of dengue

Question: What about the EC50 ([3]; Vero cells, MOI 0.1, harvested 48 hours post infection, read-out: Activity (EC50 class) against Dengue-2 Virus in Vero cells) of the same molecule?
Answer: < 5 µM

Question: Which EC50 (DENV-3; DENV3) does the source give for `O=C(Nc1c(C(=O)Nc2nnc(-c3ccccc3)s2)sc2nc3c(cc12)CCCCC3)c1ccncc1` [Compound 298, 3-(isonicotinamido)-N-(5-phenyl-1,3,4-thiadiazol-2-yl)-6,7,8,9-tetrahydro-5H-cyclohepta[b]thieno[3,2-e]pyridine-2-carboxamide] here?
Answer: < 5 µM

Question: And the EC50 (DENV-1; DENV1)?
Answer: < 5 µM

Question: And the EC50 (DENV-4; DENV4)?
Answer: < 5 µM

Question: And the EC50 [3, 4]?
Answer: < 5 µM

Question: What does the source list for `O=C(O)CC(=O)Nc1c(C(=O)Nc2nnc(-c3ccccc3)s2)sc2nc(Cl)ccc12` [Compound 362, 3-[[6-chloro-2-[(5-phenyl-1,3,4-thiadiazol-2-yl)carbamoyl]thieno[2,3-b]pyridin-3-yl]amino]-3-oxo-propanoic acid]?
Answer: EC50 (DENV-3; DENV3): > 25 µM; EC50 (DENV-1; DENV1): 5 to 25 µM; EC50 (DENV-4; DENV4): > 25 µM; EC50 [3, 4]: 5 to 25 µM

Question: For `Nc1c(C(=O)Nc2ccc(OC(F)(F)F)cc2)sc2nc(-c3ccc(Cl)cc3)ccc12` [Compound 331, 3-amino-6-(4-chlorophenyl)-N-[4-(trifluoromethoxy)phenyl]thieno[2,3-b]pyridine-2-carboxamide], which EC50 (DENV-3; DENV3, viral yield assay) is on record?
Answer: < 5 µM

Question: What about the EC50 (DENV-1; DENV1, viral yield assay) of the same molecule?
Answer: < 5 µM

Question: What about the EC50 (DENV-4; DENV4, viral yield assay) of the same molecule?
Answer: 5 to 25 µM

Question: And the EC50 [3, 5]?
Answer: < 5 µM

Question: Which EC50 (DENV-3; DENV3, viral yield assay) does the source give for `C=CCSc1nc2ccc(NC(=O)c3sc4nc(-c5cccc(OC)c5)ccc4c3N)cc2s1` [Compound 569, N-(2-allylsulfanyl-1,3-benzothiazol-6-yl)-3-amino-6-(3-methoxyphenyl)thieno [2,3-b]pyridine-2-carboxamide] here?
Answer: 5 to 25 µM

Question: What about the EC50 (DENV-1; DENV1, viral yield assay) of the same molecule?
Answer: < 5 µM

Question: And the EC50 (DENV-4; DENV4, viral yield assay)?
Answer: < 5 µM

Question: And the EC50 [3, 5]?
Answer: < 5 µM

Question: Which EC50 (DENV-3; DENV3, viral yield assay) does the source give for `Nc1c(C(=O)Nc2cc(F)ccc2F)sc2nc(-c3cccs3)ccc12` [Compound 470, 3-amino-N-(2,5-difluorophenyl)-6-(2-thienyl)thieno[2,3-b]pyridine-2-carboxamide] here?
Answer: < 5 µM

Question: What about the EC50 (DENV-1; DENV1, viral yield assay) of the same molecule?
Answer: < 5 µM

Question: What about the EC50 (DENV-4; DENV4, viral yield assay) of the same molecule?
Answer: < 5 µM

Question: And the EC50 ([3]; DENV2, Vero, 48 h, read-out: Activity (EC50 in μM) DENV-2)?
Answer: < 5 µM
